According to ChEMBL document CHEMBL3351638, “Discovery of 6-[5-(4-fluorophenyl)-3-methyl-pyrazol-4-yl]-benzoxazin-3-one derivatives as novel selective nonsteroidal mineralocorticoid receptor antagonists” (Bioorg Med Chem, 2014):

Tests used:
Rattus norvegicus [1] = experiment: Toxicity in DOCA-salt hypertensive Wistar rat model assessed as change in heart rate at 100 mg/kg, po qd for 18 days measured 24 hrs post 7th and 14th last dose by tail-cuff method; type: organism-based; design: dose 100 mg/kg, route oral; conditions: in vivo
[2] = Volume of distribution at steady state in Sprague-Dawley rat at 1 mg/kg, iv; type: ADME, organism-based; design: dose 1 mg/kg, route intravenous; conditions: in vivo, read-out: Vdss
[3] = Lipophilicity, log D of the compound at pH 7.4 by HPLC analysis; type: physicochemical; conditions: buffer
[4] = Mean residence time in Sprague-Dawley rat at 3 mg/kg, po; type: ADME, organism-based; design: dose 3 mg/kg, route oral; conditions: in vivo
Rattus norvegicus [5] = experiment: Toxicity in DOCA-salt hypertensive Wistar rat model assessed as change in seminal vesicle weight at 100 mg/kg, po qd for 18 days measured 24 hrs post 7th and 14th last dose […]; type: organism-based; design: dose 100 mg/kg, route oral; conditions: in vivo
[6] = molecular target: T1, Mineralocorticoid receptor (Homo sapiens, UniProt P08235)
T1 sequence (P08235 whole entry): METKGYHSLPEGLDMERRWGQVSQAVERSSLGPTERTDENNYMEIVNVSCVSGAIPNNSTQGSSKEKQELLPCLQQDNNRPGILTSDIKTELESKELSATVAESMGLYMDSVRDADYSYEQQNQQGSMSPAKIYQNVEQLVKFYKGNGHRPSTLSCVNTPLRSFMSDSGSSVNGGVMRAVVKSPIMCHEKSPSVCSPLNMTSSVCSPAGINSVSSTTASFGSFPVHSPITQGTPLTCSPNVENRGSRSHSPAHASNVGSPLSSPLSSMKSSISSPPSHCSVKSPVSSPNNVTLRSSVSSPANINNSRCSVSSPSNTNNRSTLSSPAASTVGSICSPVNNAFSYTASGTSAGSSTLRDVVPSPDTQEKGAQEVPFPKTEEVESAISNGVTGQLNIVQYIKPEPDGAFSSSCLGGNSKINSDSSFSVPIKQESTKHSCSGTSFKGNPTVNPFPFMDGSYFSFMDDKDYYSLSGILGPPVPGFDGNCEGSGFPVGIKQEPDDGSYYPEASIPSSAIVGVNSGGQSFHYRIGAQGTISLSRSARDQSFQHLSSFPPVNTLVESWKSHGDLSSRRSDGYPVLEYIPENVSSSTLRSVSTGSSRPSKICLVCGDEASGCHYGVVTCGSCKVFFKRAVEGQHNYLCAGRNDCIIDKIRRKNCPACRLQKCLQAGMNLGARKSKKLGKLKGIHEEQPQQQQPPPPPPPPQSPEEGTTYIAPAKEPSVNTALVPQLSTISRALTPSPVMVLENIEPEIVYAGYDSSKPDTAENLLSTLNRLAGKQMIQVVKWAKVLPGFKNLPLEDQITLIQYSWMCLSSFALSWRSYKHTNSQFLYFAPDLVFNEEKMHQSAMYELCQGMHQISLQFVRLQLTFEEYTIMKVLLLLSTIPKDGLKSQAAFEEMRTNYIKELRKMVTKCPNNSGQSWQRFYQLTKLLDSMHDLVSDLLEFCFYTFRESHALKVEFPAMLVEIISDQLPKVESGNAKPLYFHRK
Description: Antagonist activity at human mineralocorticoid receptor expressed in COS1 cells after 1 day by luciferase reporter gene assay

Androgen receptor = molecular target: T2, Androgen receptor (Homo sapiens, UniProt P10275); experiment: biochemical
T2 sequence (P10275 whole entry): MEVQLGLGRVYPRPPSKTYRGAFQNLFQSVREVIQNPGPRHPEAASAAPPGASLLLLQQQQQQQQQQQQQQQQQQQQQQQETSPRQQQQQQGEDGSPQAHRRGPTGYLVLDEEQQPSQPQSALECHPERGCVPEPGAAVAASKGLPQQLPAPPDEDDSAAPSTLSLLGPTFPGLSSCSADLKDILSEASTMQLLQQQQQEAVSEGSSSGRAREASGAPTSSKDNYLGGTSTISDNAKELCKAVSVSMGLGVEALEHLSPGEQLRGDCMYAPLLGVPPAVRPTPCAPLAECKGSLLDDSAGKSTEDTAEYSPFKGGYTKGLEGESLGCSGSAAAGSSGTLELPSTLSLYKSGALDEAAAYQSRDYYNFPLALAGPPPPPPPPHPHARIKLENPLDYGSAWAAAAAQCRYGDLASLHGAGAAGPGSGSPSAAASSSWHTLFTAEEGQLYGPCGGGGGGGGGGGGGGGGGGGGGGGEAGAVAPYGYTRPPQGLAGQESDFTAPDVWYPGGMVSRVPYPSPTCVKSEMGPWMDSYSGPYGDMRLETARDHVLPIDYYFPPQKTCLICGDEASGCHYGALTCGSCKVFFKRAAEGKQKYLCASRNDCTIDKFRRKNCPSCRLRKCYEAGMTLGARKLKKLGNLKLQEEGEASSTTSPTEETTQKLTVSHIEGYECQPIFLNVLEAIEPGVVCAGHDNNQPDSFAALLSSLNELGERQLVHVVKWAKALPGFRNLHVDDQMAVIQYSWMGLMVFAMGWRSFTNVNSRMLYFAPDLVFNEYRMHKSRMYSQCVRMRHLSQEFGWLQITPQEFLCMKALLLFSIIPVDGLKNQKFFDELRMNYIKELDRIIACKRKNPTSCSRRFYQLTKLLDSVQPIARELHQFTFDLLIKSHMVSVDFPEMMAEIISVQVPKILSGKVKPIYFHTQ
Description: Displacement of [3H]testosterone from androgen receptor (unknown origin) expressed in 293 cells after 16 hrs by scintillation counting

Progesterone receptor = molecular target: T3, Progesterone receptor (Homo sapiens, UniProt P06401); experiment: Displacement of [[3H]-Progesterone from progesterone receptor (unknown origin) expressed in 293 cells after 16 hrs by scintillation counting; type: cell-based
T3 sequence (P06401 whole entry): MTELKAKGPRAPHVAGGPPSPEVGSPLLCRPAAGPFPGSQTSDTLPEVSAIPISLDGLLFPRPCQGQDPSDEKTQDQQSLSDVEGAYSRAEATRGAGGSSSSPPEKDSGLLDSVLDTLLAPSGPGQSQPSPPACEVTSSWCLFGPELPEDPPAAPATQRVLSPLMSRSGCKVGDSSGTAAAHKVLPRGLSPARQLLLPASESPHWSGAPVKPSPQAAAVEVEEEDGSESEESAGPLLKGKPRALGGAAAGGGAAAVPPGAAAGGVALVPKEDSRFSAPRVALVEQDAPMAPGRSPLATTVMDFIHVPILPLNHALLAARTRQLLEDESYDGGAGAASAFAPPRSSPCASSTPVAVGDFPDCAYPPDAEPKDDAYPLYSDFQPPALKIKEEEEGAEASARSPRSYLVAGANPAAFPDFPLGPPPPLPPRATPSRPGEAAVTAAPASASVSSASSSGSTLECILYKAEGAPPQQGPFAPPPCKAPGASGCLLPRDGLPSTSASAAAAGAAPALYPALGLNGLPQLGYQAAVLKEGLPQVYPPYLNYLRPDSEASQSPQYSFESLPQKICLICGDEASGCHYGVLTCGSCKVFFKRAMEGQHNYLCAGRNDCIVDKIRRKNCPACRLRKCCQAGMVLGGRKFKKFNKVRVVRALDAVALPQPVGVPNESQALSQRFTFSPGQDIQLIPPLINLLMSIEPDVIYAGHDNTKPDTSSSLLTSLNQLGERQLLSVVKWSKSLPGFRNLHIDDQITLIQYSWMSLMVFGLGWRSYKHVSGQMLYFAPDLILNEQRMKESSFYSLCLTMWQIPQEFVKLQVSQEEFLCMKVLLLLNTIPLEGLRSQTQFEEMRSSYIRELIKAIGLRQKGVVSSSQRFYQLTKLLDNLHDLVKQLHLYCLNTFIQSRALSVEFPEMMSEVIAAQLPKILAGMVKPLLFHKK

[7] = Clearance in Sprague-Dawley rat at 1 mg/kg, iv; type: ADME, organism-based; design: dose 1 mg/kg, route intravenous; conditions: in vivo
[8] = Oral bioavailability in Sprague-Dawley rat at 3 mg/kg; type: ADME, organism-based; conditions: in vivo
[9] = Metabolic stability in rat hepatic microsomes at 1 umol/L pre-incubated fro 5 mins at 37 degC before addition of NADPH-generating system by UV detection based HPLC method; type: ADME; conditions: liver microsomes, read-out: CLH
[10] = molecular target: T1, Mineralocorticoid receptor; experiment: biochemical
Description: Displacement of [3H]aldosterone from human mineralocorticoid receptor expressed in 293 cells after 16 hrs by scintillation counting

[11] = AUC (0 to 24 hrs) in Sprague-Dawley rat at 3 mg/kg, po; type: ADME, organism-based; design: time < 24 hr, dose 3 mg/kg, route oral; conditions: plasma
Glucocorticoid receptor = Glucocorticoid receptor (Homo sapiens, UniProt P04150); experiment: biochemical
Sequence of Glucocorticoid receptor (P04150 whole entry, looked up): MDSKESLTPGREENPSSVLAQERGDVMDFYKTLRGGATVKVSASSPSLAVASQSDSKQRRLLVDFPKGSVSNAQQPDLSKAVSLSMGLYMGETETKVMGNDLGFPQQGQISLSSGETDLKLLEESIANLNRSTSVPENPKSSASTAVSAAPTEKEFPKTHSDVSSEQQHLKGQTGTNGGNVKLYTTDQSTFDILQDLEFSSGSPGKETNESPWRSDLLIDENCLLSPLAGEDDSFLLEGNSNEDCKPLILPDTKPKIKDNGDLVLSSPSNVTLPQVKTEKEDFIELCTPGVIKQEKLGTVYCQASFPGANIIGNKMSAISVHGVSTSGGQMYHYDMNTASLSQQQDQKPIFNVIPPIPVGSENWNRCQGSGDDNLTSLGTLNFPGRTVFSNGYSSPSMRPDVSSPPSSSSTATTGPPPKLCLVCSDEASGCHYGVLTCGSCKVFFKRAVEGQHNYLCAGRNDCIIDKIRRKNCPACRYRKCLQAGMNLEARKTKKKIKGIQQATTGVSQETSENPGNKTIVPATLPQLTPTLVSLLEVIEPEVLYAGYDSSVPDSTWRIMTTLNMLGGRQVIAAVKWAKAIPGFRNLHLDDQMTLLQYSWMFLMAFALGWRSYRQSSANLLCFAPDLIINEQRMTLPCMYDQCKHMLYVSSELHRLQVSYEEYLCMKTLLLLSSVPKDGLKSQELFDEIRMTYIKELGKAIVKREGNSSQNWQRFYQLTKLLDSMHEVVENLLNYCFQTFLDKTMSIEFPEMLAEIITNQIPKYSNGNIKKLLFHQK
Description: Displacement of [3H]-Dexamethasone from glucocorticoid receptor (unknown origin) expressed in 293 cells after 16 hrs by scintillation counting

Vd [2]: 1.36 L/kg
logD [3]: 2.05
MRT [4]: 3.77 h
IC50 [6]: 71 nM
IC50 (Androgen receptor): > 10000 nM
IC50 (Progesterone receptor): > 10000 nM
clearance [7]: 16.5 mL/min/kg
bioavailability [8]: 21.4%
microsomal CLint at 1 µM [9]: > 42 µL/min/mg
IC50 [10]: 51 nM
AUC(0-t) at 24 h [11]: 662 ng·h/mL
IC50 (Glucocorticoid receptor): 2400 nM
Structure (SMILES): Cc1nn(CC(F)(F)CO)c(-c2ccc(F)cc2)c1-c1ccc2c(c1)NC(=O)CO2
Activity (Rattus norvegicus [1]): Non-toxic
Activity (Rattus norvegicus [5]): Non-toxic
